Laboratory results taken from patent EP1184374A1, “Carboxamide derivatives of pyrrolidine, piperidine and hexahydroazepine for the treatment of thrombosis disorders” (ORTHO PHARMACEUTICAL CORPORATION, priority 1996, dated 1997).

Tests used:
thrombus formation = assay: Canine arteriovenous shunt model of thrombosis; format: in vivo
Description: For instance, compound 16 inhibits thrombus formation at 10, 30, and 100 µg/kg/min cumulative doses by iv infusion (75%, 37%, 12% of thrombus weight vs. vehicle control, respectively). Compound 18 inhibits thrombus formation at 3, 10, and 30 µg/kg/min cumulative doses by iv infusion (82%, 41%, 12% of thrombus weight vs. vehicle control, respectively).

GPIIb/IIIa = GPIIb/IIIa (Homo sapiens, UniProt P05106+P08514); assay: In vitro solid phase purified glycoprotein IIb/IIIa binding assay (biotinylated fibrinogen binding); conditions: read-out: Fibrinogen Binding % Inh. (50 µM)
Description: IN VITRO SOLID PHASE PURIFIED GLYCOPROTEIN IIB/IIIA BINDING ASSAY.
The plate is covered and incubated overnight at 4°C. The GPIIb/IIa solution is discarded and 150 µl of 5% BSA is added and incubated at RT for 1-3 h. The plate is washed extensively with modified Tyrodes buffer. Biotinylated fibrinogen (25 µl/well) at 2 x final concentration is added to the wells that contain the test compounds (25 µl/well). The plate is covered and incubated at RT for 2-4 h. Twenty minutes prior to incubation completion, one drop of Reagent A (Vecta Stain ABC Horse Radish Peroxidase kit, Vector Laboratories, Inc.) and one drop Reagent B are added with mixing to 5 mL modified Tyrodes buffer mix and let stand. The ligand solution is discarded and the plate washed (5 x 200 µl/well) with modified Tyrodes buffer. Vecta Stain HRP-Biotin-Avidin reagent (50 µl/well, as prepared above) is added and incubated at RT for 15 min. The Vecta Stain solution is discarded and the wells washed (5 x 200 µl/well) with modified Tyrodes buffer. Developing buffer (10 mL of 50 mM citrate/phosphate buffer @ pH 5.3, 6 mg o-phenylenediamine, 6 µl 30% H2O2; 50 µl/well) is added and incubated at RT for 3-5 min, and then 2N H2SO4 (50 µl/well) is added. The absorbance is read at 490 nm.

[1] = tested on: collagen- or ADP-induced ex vivo platelet aggregation; assay: Ex vivo dog study (platelet aggregation, hemodynamics, bleeding time, coagulation, cell counts); format: in vivo, dogs
Description: Adult mongrel dogs (8-13 kg) were anesthetized with sodium pentobarbital (35 mg/kg, i.v.) and artificially respired. Arterial blood pressure and heart rate were measured using a Millar catheter-tip pressure transducer inserted in a femoral artery. Another Millar transducer was placed in the left ventricle (LV) via a carotid artery to measure LV end diastolic pressure and indices of myocardial contractility. A lead II electrocardiogram was recorded from limb electrodes. Catheters were placed in a femoral artery and vein to sample blood and infuse drugs, respectively. Responses were continuously monitored using a Modular Instruments data aquisition system.
Arterial blood samples (5-9 ml) were withdrawn into tubes containing 3.8% sodium citrate to prepare platelet rich plasma (PRP) and to determine effects on coagulation parameters: prothrombin time (PT) and activated partial thromboplastin time (APTT). Separate blood samples (1.5 ml) were withdrawn in EDTA to determine hematocrit and cell counts (platelets, RBC's and white cells). Template bleeding times were obtained from the buccal surface using a symplate incision devise and Whatman filter paper.
Aggregation of PRP was performed using a BioData aggregometer. Aggregation of whole blood used a Chronolog impedance aggregometer. PT and APTT were determined on either a BioData or ACL 3000+ coagulation analyser. Cells were counted with a Sysmex K-1000.
Compounds were solubilized in a small volume of dimethylformamide (DMF) and diluted with saline to a final concentration of 10% DMF. Compounds were administered by the intravenous route with a Harvard infusion pump. Doses was administered over a 15 min interval at a constant rate of 0.33 ml/min. Data were obtained after each dose and in 30 min intervals following the end of drug administration. Oral doses were administered as aqueous solutions via syringe.

gel-filtered platelets = assay: In vitro inhibition of thrombin-induced gel-filtered platelet aggregation; format: cell-based; conditions: Homo sapiens
Description: IN VITRO INHIBITION OF THROMBIN-INDUCED GEL-FILTERED PLATELET AGGREGATION ASSAY.
The percentage of platelet aggregation is calculated as an increase in light transmission of compound-treated platelet concentrate vs. control-treated platelet concentrate. Human blood is obtained from drug free, normal donors into tubes containing 0.13M sodium citrate. Platelet rich plasma (PRP) is collected by centrifugation of whole blood at 200 x g for 10 min at 25°C. The PRP (5 mL) is gel filtered through Sepharose 2B (bed volume 50 mL), and the platelet count is adjusted to 2x10^7 platelets per sample. The following constituents are added to a siliconized cuvette: concentrated platelet filtrate and Tyrode's buffer (0.14M NaCl, 0.0027MKCl, 0.012M NaHCO3, 0.76 mM Na2HPO4, 0.0055M glucose, 2 mg/mL BSA and 5.0mM HEPES @ pH 7.4) in an amount equal to 350 µl, 50 µl of 20 mM calcium and 50 µl of the test compound. Aggregation is monitored in a BIODATA aggregometer for the 3 min following the addition of agonist (thrombin 50 µl of 1 unit/mL).

platelet aggregation = conditions: L. Alig, J. Med. Chem. 1992, 35, 4393; read-out: IC50 against in vitro thrombin-induced platelet aggregation; cited from earlier work

Chain of GPIIb/IIIa (P08514 32-887 limits assumed): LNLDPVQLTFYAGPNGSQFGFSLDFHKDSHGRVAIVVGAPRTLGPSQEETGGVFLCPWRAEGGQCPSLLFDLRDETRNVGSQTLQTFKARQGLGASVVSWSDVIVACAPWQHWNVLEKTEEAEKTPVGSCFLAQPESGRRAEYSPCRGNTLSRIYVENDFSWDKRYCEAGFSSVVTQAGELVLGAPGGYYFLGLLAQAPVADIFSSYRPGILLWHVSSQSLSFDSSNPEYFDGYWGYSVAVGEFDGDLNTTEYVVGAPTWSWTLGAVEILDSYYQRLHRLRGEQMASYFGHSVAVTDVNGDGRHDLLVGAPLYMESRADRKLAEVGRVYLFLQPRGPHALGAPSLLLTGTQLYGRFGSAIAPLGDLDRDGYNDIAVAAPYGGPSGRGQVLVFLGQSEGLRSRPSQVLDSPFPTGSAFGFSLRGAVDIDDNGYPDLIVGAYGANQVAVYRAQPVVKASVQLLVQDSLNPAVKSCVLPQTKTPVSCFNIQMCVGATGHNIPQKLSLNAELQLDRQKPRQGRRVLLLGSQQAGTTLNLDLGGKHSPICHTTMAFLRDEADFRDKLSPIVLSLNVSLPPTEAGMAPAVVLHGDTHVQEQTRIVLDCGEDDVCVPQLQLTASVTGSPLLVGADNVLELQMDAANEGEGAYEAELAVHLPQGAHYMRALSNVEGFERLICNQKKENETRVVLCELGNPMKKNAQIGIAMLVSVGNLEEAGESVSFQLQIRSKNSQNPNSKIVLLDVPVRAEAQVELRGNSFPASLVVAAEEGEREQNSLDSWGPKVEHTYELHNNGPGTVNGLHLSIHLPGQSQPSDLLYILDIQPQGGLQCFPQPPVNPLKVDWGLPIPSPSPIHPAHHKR
Chain of GPIIb/IIIa (P08514 891-1039 partner limits assumed): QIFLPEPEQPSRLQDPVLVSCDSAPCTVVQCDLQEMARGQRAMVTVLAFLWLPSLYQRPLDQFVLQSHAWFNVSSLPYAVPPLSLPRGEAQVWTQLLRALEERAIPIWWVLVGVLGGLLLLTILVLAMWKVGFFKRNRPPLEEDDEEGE
Chain of GPIIb/IIIa (P05106 27-788): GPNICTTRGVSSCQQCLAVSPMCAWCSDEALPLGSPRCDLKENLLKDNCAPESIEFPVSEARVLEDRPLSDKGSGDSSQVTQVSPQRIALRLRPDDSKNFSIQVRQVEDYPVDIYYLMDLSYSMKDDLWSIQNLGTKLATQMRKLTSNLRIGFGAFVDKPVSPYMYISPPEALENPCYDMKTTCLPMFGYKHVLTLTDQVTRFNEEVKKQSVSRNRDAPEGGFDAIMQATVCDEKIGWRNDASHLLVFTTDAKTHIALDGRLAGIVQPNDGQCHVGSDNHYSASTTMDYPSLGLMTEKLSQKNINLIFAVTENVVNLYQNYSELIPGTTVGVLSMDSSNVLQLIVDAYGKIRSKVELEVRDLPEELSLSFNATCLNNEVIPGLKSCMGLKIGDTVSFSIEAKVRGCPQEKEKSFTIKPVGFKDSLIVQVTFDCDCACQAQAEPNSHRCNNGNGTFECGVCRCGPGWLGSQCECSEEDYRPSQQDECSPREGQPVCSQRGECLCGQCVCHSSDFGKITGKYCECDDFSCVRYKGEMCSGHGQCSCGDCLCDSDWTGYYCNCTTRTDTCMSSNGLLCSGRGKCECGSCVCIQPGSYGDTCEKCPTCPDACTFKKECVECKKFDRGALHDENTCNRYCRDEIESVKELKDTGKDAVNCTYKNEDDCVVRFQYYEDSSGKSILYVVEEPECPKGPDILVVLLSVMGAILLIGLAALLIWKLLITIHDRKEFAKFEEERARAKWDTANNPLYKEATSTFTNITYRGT

O=C(O)C[C@H](NC(=O)[C@@H]1CCCN(C(=O)CCC2CCNCC2)C1)c1cnc2ccccc2c1 [Compound 18, N-3-(4-Piperidinepropionyl)-R-(-)-nipecotyl-[(S)-3-amino-3-(3-quinolinyl)]propionic acid]
% of thrombus weight vs. vehicle control (thrombus formation; 3 µg/kg/min cumulative dose by iv infusion): 82% | % of thrombus weight vs. vehicle control (thrombus formation; 10 µg/kg/min cumulative dose by iv infusion): 41% | % of thrombus weight vs. vehicle control (thrombus formation; 30 µg/kg/min cumulative dose by iv infusion): 12% | inhibition at 50 µM (GPIIb/IIIa): 100% | Duration of >50% inhibition of collagen- or ADP-induced ex vivo platelet aggregation ([1]; intravenous dosing 0.1 mpk): 30 min | Duration of >50% inhibition of collagen- or ADP-induced ex vivo platelet aggregation ([1]; oral dosing 1 mpk): 150 min | IC50 (gel-filtered platelets): 0.019 µM | inhibition at 50 µM (gel-filtered platelets; 50 µM, read-out: Platelet Aggregation % Inh. (50µM)): 100%

CN(CC(=O)c1ccc(OCC(=O)O)c(OCC(=O)O)c1)C(=O)c1ccc(C(=N)N)cc1 [Ro-438857]
IC50 (platelet aggregation): 0.094 µM
